Measured values from ChEMBL document CHEMBL1155854, “Conformationally constrained farnesoid X receptor (FXR) agonists: Naphthoic acid-based analogs of GW 4064” (Bioorg Med Chem Lett, 2008).
Calls of active or inactive are those of the source. No cut-off for these calls is given here.

What was measured:
Rattus norvegicus = assay: Reduction of serum alkaline phosphatase level in alpha-naphthyl-isothiocyanate-induced rat acute cholestasis model at 100 to 300 mg/kg, po bid for 4 days dosed before 2 days induction by alpha-naphthyl-isothiocyanate; type: functional, organism-based
Estrogen receptor = biological target: T1, Estrogen receptor (Homo sapiens, UniProt P03372); assay: Agonist activity at ERalpha by fluorescence polarization assay; type: functional
T1 sequence (P03372 whole entry): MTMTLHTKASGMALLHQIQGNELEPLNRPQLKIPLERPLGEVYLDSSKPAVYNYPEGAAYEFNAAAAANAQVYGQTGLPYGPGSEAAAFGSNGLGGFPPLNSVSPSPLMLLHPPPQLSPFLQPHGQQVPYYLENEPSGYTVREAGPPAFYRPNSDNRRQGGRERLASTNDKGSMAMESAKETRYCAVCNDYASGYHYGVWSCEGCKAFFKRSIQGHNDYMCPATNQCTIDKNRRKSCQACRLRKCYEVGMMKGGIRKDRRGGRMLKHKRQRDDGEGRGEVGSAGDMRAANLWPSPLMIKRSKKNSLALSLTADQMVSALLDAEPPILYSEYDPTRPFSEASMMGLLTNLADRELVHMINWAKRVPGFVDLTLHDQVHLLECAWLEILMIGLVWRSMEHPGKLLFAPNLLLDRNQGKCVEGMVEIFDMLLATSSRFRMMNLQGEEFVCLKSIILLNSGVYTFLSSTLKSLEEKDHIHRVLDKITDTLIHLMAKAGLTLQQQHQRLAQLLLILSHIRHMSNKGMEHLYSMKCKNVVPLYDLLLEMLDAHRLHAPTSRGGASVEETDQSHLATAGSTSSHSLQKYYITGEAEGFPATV

[1] = Clearance in iv dosed mouse; type: ADME, organism-based; conditions: in vivo

In the case of `CC(C)c1onc(-c2c(Cl)cccc2Cl)c1COc1ccc(-c2ccc3c(C(=O)O)cccc3c2)cc1`, the Activity (Rattus norvegicus) is reported as “Active”, the XC50 (Estrogen receptor) is reported as over 20 µM and the clearance [1] is reported as 7 mL/min/kg.
